Measurements from patent publication US20230123140A1, “DOSE TREATMENTS OF TAUOPATHIES” (AC Immune SA, priority 2020, published 2023).

Assays:
[1] = tested on: Gottingen mini-pig; assay: in vivo; details: minipig
Description: (§1) This study was conducted to evaluate the potential toxicity of ACI-3024 in a non-rodent species when given daily to Gottingen mini-pig for 4 weeks, followed by a 2-week recovery period.
(§2) Doses tested, 50, 150 and 450 mg/kg were given by p.o. to 3 animals/sex/group daily. The control animals were administered vehicle. The dose volume was 5 mL/kg for all groups.
(§3) Clinical signs, body weights, food consumption, electrocardiography, ophthalmology and clinical pathology were evaluated. For each sex/group, a complete necropsy was conducted on 3 animals at the end of the dosing period and on 2 (only control and high dose groups) surviving animals at end of the recovery period.

[2] = in vivo; parameters: species or system mini-pig; details: both sexes, Gottingen, minipig, po
Description: as §1, §2, §3

[3] = tested on: healthy subjects; assay: First-in-human study, multiple ascending dose (MAD) part: safety and tolerability; format: in vivo; details: MAD cohorts
Description: A First-In-Human, Randomized, Placebo-Controlled, Double-Blind, SAD/MAD Study to Assess the Safety, Tolerability, Pharmacokinetics, and Pharmacodynamics of ACI-3024
The objective of the study is to assess the safety, tolerability, pharmacokinetics (PK), and pharmacodynamics (PD) of single ascending doses (SAD) and multiple ascending doses (MAD) of ACI-3024 in a first-in-human, randomized, placebo-controlled, double-blind, sequential SAD/MAD study with open-label food effect and pharmacodynamic assessment arms. The study comprises different parts to be conducted in Healthy Volunteers: • 1) one Single Ascending Dose (SAD) part in which several cohorts are being investigated with single ascending doses of ACI-3024. The food effect is also explored in this part. • 2) one Multiple Ascending Dose (MAD) part in which several cohorts are being investigated with multiple ascending doses of ACI-3024. Each study part is assessing the safety, tolerability, pharmacokinetics and pharmacodynamics of ACI-3024.
This part was conducted in elderly non-Japanese healthy subjects (MAD HV1 to MAD HV3 cohorts) and in non-elderly Japanese and non-Japanese healthy male subjects (MAD HV4 cohort).
The healthy subject part of Part III was a multiple dose, sequential group study. Overall, 30 healthy elderly male or female non Japanese subjects are being studied in 3 cohorts (Cohorts MAD HV1 to MAD-HV3), with each cohort consisting of 10 subjects. A cohort of 10 healthy non-elderly male Japanese and non-Japanese subjects were enrolled (MAD HV4) to collect safety, tolerability, PK, and PD biomarker data and to enable direct comparisons between non-elderly Japanese and non-Japanese subjects after multiple doses. The dose used in this cohort is based on previously conducted cohorts in non Japanese elderly healthy subjects to assess the effect of multiple doses in non-elderly male Japanese subjects compared to non-elderly non-Japanese male subjects. The MAD HV4 cohort was dosed in parallel with the MAD HV3 cohort. […]

Question: Which results are given for `Fc1ccc2c3c([nH]c2c1)CCN(c1ccc2oc(N4CCOCC4)nc2c1)C3` [ACI-3024]?
Answer: body weight gain [1]: minimal test item-related reduction; NOAEL at 4 weeks [2]: 450 mg/kg; serious adverse events of liver injury possibly related to study drug ([3]; 14 days): 2; AEs considered related or possibly related to study drug ([3]; 14 days, of 89 AEs): 33; SAEs ([3]; dose below 1000 mg/day): did not show SAEs
